# Assay results: patent US20120024744A1, “Soil-related and/or Crop-related Applications for Chlorine Dioxide” (DHARMA IP, LLC, priority 2010, published 2012)
# Test: Enhanced solubility of beta-cyclodextrin in water containing ClO2
# Format: physicochemical
# Details: 100 g slurries, 5% (w/w) in 8000 ppm ClO2 vs ultrapure water, 200 rpm, 3 days
smiles,measurement,value
OC[C@H]1O[C@@H]2O[C@H]3[C@H](O)[C@@H](O)[C@@H](O[C@H]4[C@H](O)[C@@H](O)[C@@H](O[C@H]5[C@H](O)[C@@H](O)[C@@H](O[C@H]6[C@H](O)[C@@H](O)[C@@H](O[C@H]7[C@H](O)[C@@H](O)[C@@H](O[C@H]8[C@H](O)[C@@H](O)[C@@H](O[C@H]1[C@H](O)[C@H]2O)O[C@@H]8CO)O[C@@H]7CO)O[C@@H]6CO)O[C@@H]5CO)O[C@@H]4CO)O[C@@H]3CO [beta-cyclodextrin],"weight of dried undissolved beta-cyclodextrin, ClO2 containing slurry less than control slurry",0.32 g
